In ChEMBL document CHEMBL1201862, “PubChem BioAssay data set” (2004):
Active and inactive are the calls of the source. Rule as the data show it, for most assays here: actives have a measured EC50 and inactives only a lower limit.

Key:
[1] = target: T1, Heat shock factor protein 1 (Mus musculus, UniProt P38532); experiment: enhancement of HSF1-driven luciferase signal – cell-based, NIH3T3, luminescence, dose retest, confirmation (AID 435004); assay type: functional;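 also: stress induced by proteasome inhibitor MG132 added 30 min after compound; luciferase reporter driven by HSF1 response element in NIH3T3 cells; actives raise luminescence as potentiators of the MG132 stress response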
T1 sequence (P38532 whole entry): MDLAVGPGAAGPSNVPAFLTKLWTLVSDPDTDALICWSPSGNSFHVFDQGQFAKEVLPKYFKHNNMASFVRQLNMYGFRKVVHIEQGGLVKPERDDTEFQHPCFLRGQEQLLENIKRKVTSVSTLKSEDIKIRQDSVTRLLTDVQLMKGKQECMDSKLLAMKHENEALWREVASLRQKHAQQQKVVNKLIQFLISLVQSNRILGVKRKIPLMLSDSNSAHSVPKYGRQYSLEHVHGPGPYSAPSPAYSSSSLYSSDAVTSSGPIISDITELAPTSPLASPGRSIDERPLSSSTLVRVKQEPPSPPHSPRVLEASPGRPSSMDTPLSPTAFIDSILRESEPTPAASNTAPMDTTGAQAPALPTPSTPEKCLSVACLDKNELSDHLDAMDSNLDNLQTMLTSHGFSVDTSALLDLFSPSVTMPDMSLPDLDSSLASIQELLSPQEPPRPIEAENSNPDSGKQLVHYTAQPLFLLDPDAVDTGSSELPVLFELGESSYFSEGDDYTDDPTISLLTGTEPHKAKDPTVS

INS1 = experiment: INS-1E survival protection against cytokine death – cell-based, luminescence, retest, dose response (AID 449756); assay type: functional; conditions: Rattus norvegicus;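 also: cell death triggered by IL-1 beta plus TNF-alpha plus IFN-gamma mixture; protective hits raise ATP signal compared with cytokine alone wells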
H4 = experiment: Luminescence Cell-Based Dose Response HTS to Identify Activators of 5'UTR Stem-Loop Driven Prion Protein mRNA Translation in H4 Neuroglioblastoma Cells. [Related pubchem assays: 1829 (Project Summary), 1814 (Primary HTS)]; assay type: functional; conditions: Homo sapiens
[2] = Luminescence Cell-Based Dose Confirmation HTS to Identify Activators of 5'UTR Stem-Loop Driven Alpha-Synuclein mRNA Translation in H4 Neuroglioblastoma Cells. [Related pubchem assays: 1829 (Project Summary), 1814 (Primary HTS)]; assay type: functional
[3] = Luminescence Cell-Based Dose Response HTS to Identify Activators of Luciferase Translation or Activity in H4 […] Cells. [Related pubchem assays: 1829 (Project Summary), 1814 (Primary HTS)]; assay type: functional
[4] = Luminescence Cell-Based Dose Retest to Confirm Inhibitors of Cancer Stem Cells. [Related pubchem assays (depositor defined):AID2717, AID2721]; assay type: functional; conditions: Homo sapiens
Streptococcus = experiment: GAS UMAA2166 growth inhibition – luminescence, BacTiterGlo, counter-screen for streptokinase expression inhibitor project, dose response (AID 1915); assay type: functional, organism-based;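 also: potency for reduction of bacterial viability or growth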
Streptokinase A = target: T2, Streptokinase A (Streptococcus pyogenes serotype M1, UniProt P10520); experiment: viability-normalized secreted streptokinase activity reduction – plasminogen activation absorbance, OD405, dose response (AID 1914); assay type: functional, Streptococcus pyogenes M1 GAS;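 also: secreted streptokinase activity via plasminogen activation per viability signal from cell pellet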
T2 sequence (P10520 whole entry): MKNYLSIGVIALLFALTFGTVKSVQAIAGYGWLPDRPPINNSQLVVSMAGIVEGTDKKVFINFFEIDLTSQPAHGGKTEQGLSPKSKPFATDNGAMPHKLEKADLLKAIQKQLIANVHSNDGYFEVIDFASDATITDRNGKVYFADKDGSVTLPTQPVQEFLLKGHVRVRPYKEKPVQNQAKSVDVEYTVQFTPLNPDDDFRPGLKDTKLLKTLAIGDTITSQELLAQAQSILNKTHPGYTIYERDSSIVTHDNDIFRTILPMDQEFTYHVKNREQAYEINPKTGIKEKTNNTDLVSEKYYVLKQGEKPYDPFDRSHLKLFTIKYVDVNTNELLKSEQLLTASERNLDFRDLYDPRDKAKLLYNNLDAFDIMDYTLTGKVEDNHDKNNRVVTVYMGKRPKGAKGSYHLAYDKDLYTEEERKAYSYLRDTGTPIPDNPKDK

[5] = system: Streptococcus sp. 'group A'; experiment: Streptococcus pyogenes SK(-)GAS viability under kanamycin – luminescence, BacTiterGlo, confirmation, counter-screen for streptokinase expression inhibitor project, dose response (AID 1900); assay type: functional, organism-based
[6] = NIH3T3 cell viability loss – ATP luminescence, mouse fibroblasts, counter-screen, dose response (AID 2010); assay type: functional, cell-based;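 also: cells exposed to compound for about 90 hours before reading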
[7] = Trypanosoma cruzi growth suppression in host cells – NIH3T3 host cells, beta-gal luminescence, confirmation (AID 2044); assay type: functional, cell-based;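 also: intracellular parasites grown in NIH/3T3 mouse fibroblasts as host cells; luminescent beta-galactosidase reporter signal from transgenic T. cruzi replicating inside host cells; inhibitors lower the luminescence signal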

Question: With Cc1ccc(-c2csc(NC(=O)c3cccc([N+](=O)[O-])c3)n2)cc1 as the compound, how does the EC50 [1] read?
Answer: > 260 µM (inactive)

Question: Which AC50 (INS1) does the source give for CN1/C(=C\C(=S)NC(=O)c2ccc([N+](=O)[O-])cc2)C(C)(C)c2ccccc21 here?
Answer: 22.2 µM (active)

Question: For O=C(CCS(=O)(=O)c1cccs1)NC1CCCCCC1, which EC50 (H4) is on record?
Answer: 16 µM (active)

Question: What about the EC50 [2] of the same compound?
Answer: 13.5 µM (active)

Question: What about the EC50 [3] of the same compound?
Answer: 29.1 µM (active)

Question: Which EC50 (H4) does the source give for CC1=NN(C(N)=S)C(=O)C1N=Nc1ccc(Cl)cc1Cl (configuration not stated) here?
Answer: > 120 µM (not active)

Question: And the EC50 [2]?
Answer: 1.09 µM (active)

Question: What about the EC50 [3] of the same compound?
Answer: > 120 µM (not active)

Question: With CC1(C)CC(=O)/C(=C\c2cccc([N+](=O)[O-])c2)C(C)(C)N1 as the compound, how does the EC50 [1] read?
Answer: 18.6 µM (active)

Question: Which EC50 [1] does the source give for CCOC(=O)Cc1nnc(Nc2cccc(C)c2)c2ccccc12 here?
Answer: > 260 µM (inactive)

Question: With CC1(C)CC(=O)C2=C(C1)c1c(ccc3ccccc13)NC2c1ccco1 (configuration not stated) as the compound, how does the EC50 (H4) read?
Answer: > 120 µM (not active)

Question: What about the EC50 [2] of the same compound?
Answer: 15.7 µM (active)

Question: What about the EC50 [3] of the same compound?
Answer: 27.4 µM (active)

Question: For COc1ccc(C)cc1Nc1n[n+](-c2ccccc2)c(-c2c(OC)ccc3ccccc23)s1, which AC50 [4] is on record?
Answer: 4.84 µM (active)

Question: What about the AC50 (INS1) of the same compound?
Answer: 5.74 µM (active)

Question: Which EC50 [1] does the source give for CCCCn1c(N)c(N(CC(C)C)C(=O)C2CCN(S(=O)(=O)c3ccc(C)c(C)c3)CC2)c(=O)[nH]c1=O here?
Answer: > 260 µM (inactive)

Question: For Cc1ccc(CSc2nc3sc(C)c(C)c3c(=O)n2Cc2ccco2)cc1, which AC50 [4] is on record?
Answer: 23.3 µM (active)

Question: And the EC50 (Streptococcus)?
Answer: > 150 µM (not active)

Question: What about the EC50 (Streptokinase A) of the same compound?
Answer: 99.5 µM (active)

Question: And the EC50 [5]?
Answer: > 150 µM (not active)

Question: For Cc1ccc(N=C2NC(=O)CS2)cc1, which EC50 [1] is on record?
Answer: > 260 µM (inactive)

Question: Which AC50 (INS1) does the source give for Cc1ccc(Sc2cc(C)nc(-c3ccccn3)n2)cc1 here?
Answer: 4 µM (active)

Question: What about the EC50 (Streptococcus) of the same compound?
Answer: 49.4 µM (active)

Question: What about the EC50 (Streptokinase A) of the same compound?
Answer: > 150 µM (not active)

Question: And the EC50 [5]?
Answer: 21.1 µM (active)

Question: With O=C(Nc1cccc(Cl)c1)Nc1sccc1-c1nc2ccccc2s1 as the compound, how does the AC50 [4] read?
Answer: 39 µM (active)

Question: Which EC50 [1] does the source give for CCc1cccc(NS(=O)(=O)c2ccc3c(c2)NC(=O)C(C)S3)c1 (configuration not stated) here?
Answer: > 260 µM (inactive)

Question: For Cc1nnc2n1N=CC=C(c1ccccc1)S2, which EC50 (H4) is on record?
Answer: > 120 µM (not active)

Question: And the EC50 [2]?
Answer: 0.547 µM (active)

Question: What about the EC50 [3] of the same compound?
Answer: 7.89 µM (active)

Question: For CCOC(=O)c1cnc(-n2nc(C)cc2C)nc1Nc1ccc(N(C)C)cc1, which EC50 [6] is on record?
Answer: > 30 µM (not active)

Question: What about the AC50 (INS1) of the same compound?
Answer: 4.04 µM (active)

Question: What about the EC50 [7] of the same compound?
Answer: 1.12 µM (active)

Question: For CC(C)(C)NC(=O)C(c1ccncc1)N(C(=O)Cn1nnc(-c2cccs2)n1)C1CCCCC1 (configuration not stated), which EC50 [1] is on record?
Answer: > 260 µM (inactive)

Question: For Oc1c2cnnc-2nc(SCc2ccccc2F)n1-c1ccc(Br)cc1, which AC50 [4] is on record?
Answer: 3.3 µM (active)

Question: Which AC50 (INS1) does the source give for CC(C)C[C@H]1CN=C(Nc2ccccc2)N1CCc1ccc(F)cc1 here?
Answer: 64.4 µM (active)

Question: With C/C(=C\C(=O)Nc1cscc1C)C(=O)O as the compound, how does the EC50 [1] read?
Answer: > 260 µM (inactive)

Question: With Cc1cccc(OCCOC(=O)c2c(-c3ccccc3)noc2C)c1 as the compound, how does the EC50 (H4) read?
Answer: > 120 µM (not active)

Question: What about the EC50 [2] of the same compound?
Answer: > 120 µM (not active)

Question: And the EC50 [3]?
Answer: 62 µM (active)

Question: Which EC50 (H4) does the source give for Cc1cc(C)c2c3c(sc2n1)C1(CCSCC1)C(C#N)=C(N)O3 here?
Answer: 14.7 µM (active)

Question: And the EC50 [6]?
Answer: > 30 µM (not active)

Question: And the EC50 [7]?
Answer: 0.118 µM (active)

Question: What about the EC50 [2] of the same compound?
Answer: 20.3 µM (active)

Question: What about the EC50 [3] of the same compound?
Answer: 14.5 µM (inconclusive)

Question: Which EC50 [1] does the source give for Cc1c(OCC(=O)NCCCn2ccnc2)ccc2c3c(c(=O)oc12)CCCC3 here?
Answer: > 260 µM (inactive)

Question: Which AC50 [4] does the source give for c1ccc(-c2sc3ccccc3c2-c2ccc(OCCN3CCOCC3)cc2)cc1 here?
Answer: 2.28 µM (active)

Question: Which AC50 [4] does the source give for CN(/N=C/c1cc(Cl)cc(Cl)c1O)C(=S)NC(C)(C)C here?
Answer: 2.5 µM (active)

Question: With COC(=O)c1ccc(COc2ccccc2/C=N/NS(=O)(=O)c2ccc(C)cc2)cc1 as the compound, how does the EC50 (H4) read?
Answer: > 120 µM (not active)

Question: And the EC50 [2]?
Answer: > 120 µM (not active)

Question: What about the EC50 [3] of the same compound?
Answer: > 120 µM (not active)

Question: What does the source list for O=C1NC2(CCCCC2)C(=O)N1/N=C/c1ccccc1Br?
Answer: EC50 (H4): 16.1 µM (active); EC50 [2]: > 120 µM (not active); EC50 [3]: 24.6 µM (active)

Question: For CCN1/C(=N/c2ccc(Cl)cc2)SC/C1=C\C(=O)OC, which EC50 (H4) is on record?
Answer: 23.7 µM (active)

Question: And the EC50 [2]?
Answer: 17.1 µM (active)

Question: What about the EC50 [3] of the same compound?
Answer: 26.6 µM (active)
